Laboratory results reported in publication PMC7721897, “Metabolism and pharmacokinetics of a novel polyphenol fatty acid ester phloridzin docosahexaenoate in Balb/c female mice” (Scientific Reports, 2020).
Where two headings read alike, the source gives them in different places.

How the values were obtained:
[1] = test system: mammary carcinoma cells, including MDA-MB-231 and 4T1; design: method as in PMID 31473253; conditions: 20 µM for PZ-DHA; cited from earlier work
MCF-7 cells = experiment: Cellular uptake assay (UPLC-ESI-MS/MS of cell lysates); assay type: cell-based, human; conditions: 20 μM, 72 h
Experimental: (§1) Figure 1 Conjugation of PZ with DHA increases the cellular uptake and stability of PZ and DHA. The cells were treated with 20 μM of PZ, DHA or PZ-DHA and cultured for 72 h at 37 °C. Cells were harvested and washed thoroughly using cold PBS. Cells were lysed in cold acetone containing 0.05 mg/mL quercetin, and cell lysates were collected by centrifugation and analyzed by using UPLC-ESI-MS/MS. (A) mean % cellular uptake of PZ, DHA and PZ-DHA. (B) fold increase in intracellular PZ and DHA when conjugated. ANOVA multiple means statistical comparison method was performed and differences among means were compared using Tukey’s test; *p < 0.05. (MDA-MB-231 p = 0.008; MDA-MB-468 p = 0.01; 4T1 p = 0.02; MCF-7 p = 0.01; MCF-10A p = 0.0005).
(§2) Cells were seeded at a density of 3 × 10^5 cells (MDA-MB-231, MDA-MB-468, MCF-7, and MCF-10A) or 1 × 10^5 cells (4T1) /T-75 flask. The cells were cultured overnight to promote cell adhesion. Adherent cells were treated with a sub-cytotoxic concentration (20 μM) of PZ, DHA or PZ-DHA and cultured for 72 h at 37 °C. The supernatant was carefully removed, and cell monolayers were washed with cold PBS. Cells were harvested using TrypLE Express and washed thoroughly with cold PBS. […] The sample was analyzed using a UPLC/ESI/MS system. The percentage cell uptake of the total dose was quantified using standard curves of PZ (R^2 = 0.99), DHA (R^2 = 0.98) or PZ-DHA (R^2 = 0.99) made in methanol.
(§3) PZ-DHA and/or PZ-DHA metabolites in malignant/non-malignant epithelial cell lysates, in vitro microsome enzyme reaction mixtures, and mouse serum aliquots were determined using UPLC-ESI–MS/MS instrument (Waters Limited, Mississauga, ON, Canada). All mass spectroscopic analyses were performed using mass scan (full-scan, identification of unknowns) and single ion monitoring (SIM; quantification of PZ, DHA, PZ-DHA, and quercetin) modes of a Waters H-class UPLC separations module coupled with a Micromass Quattro micro API MS/MS system and MassLynx V4.0 control software. […]

MCF-10A cells = experiment: as above; assay type: cell-based, human; conditions: 20 μM, 72 h
Experimental: as §1, §2, §3

MDA-MB-468 cells = experiment: as above; assay type: cell-based, human; conditions: 20 μM, 72 h
Experimental: as §1, §2, §3

[2] = Tissue distribution of PZ-DHA and metabolites after intraperitoneal injection; assay type: in vivo, Balb/c female mice; conditions: female, Balb/c, mouse, intraperitoneal, 100 mg/kg
Experimental: Figure 5 PZ-DHA and metabolites were detected in various organs of PZ-DHA-treated Balb/c female mice. PZ-DHA (100 mg/kg) was administered by intraperitoneal injection to Balb/c female mice and liver, lungs, kidneys, spleen and brain were harvested. Organs were homogenized and PZ-DHA in (A) liver, kidneys, lungs, spleen, and brain was identified and quantified using a calibration curve. The abundance of (B) 4,4′,6′-tri-O-methyl-phloridzin docosahexaenoate in liver, kidneys, lungs, and serum) and (C) phloridzin docosahexaenoate-4,4′-di-O-sulphide in the liver was determined in PZ-DHA equivalence.
Pharmacokinetic parameters and in vivo generation of PZ-DHA metabolites were studied using Balb/c female mice. Mice were randomly divided into six groups (n = 4/group) and PZ-DHA (100 mg/kg) was administered by intraperitoneal injection. For each mouse, a single blood collection was performed by cardiac puncture at one of six different time points (t = 15, 30, 60, 90, 120, and 240 min). At the end of blood collection, mice were euthanized by cervical dislocation and organs (liver, lungs, kidneys, spleen, and brain) were harvested. Blood samples were allowed to clot by leaving undisturbed at room temperature for 1 h, and serum was separated by centrifuging at 2000×g for 10 min at 4 °C. The serum was carefully removed and stored on ice until further processing. Serum proteins were precipitated by incubating an aliquot of serum with a mixture of acetonitrile:acetone (80:20) containing 0.1 mg/mL quercetin (internal standard) at 4 °C overnight. The supernatant was separated by centrifuging at 14,000×g for 10 min at 4 °C. Excess solvent was evaporated using nitrogen flush and mixed with methanol and filtered. PZ-DHA-metabolites in the filtrate were identified using a UPLC-ESI–MS/MS (Waters Limited, Mississauga, ON, Canada). Organs were homogenized in PBS (1:5 w/v). Supernatants were collected by centrifugation at 14,000 × g for 15 min at 4 °C. Proteins were precipitated by incubating in acetonitrile:acetone (80:20) containing 0.1 mg/mL quercetin (internal standard) at 4 °C overnight. Supernatants were treated as explained above, and PZ-DHA and/or PZ-DHA-metabolites were identified.

[3] = design: method as in PMID 31473253; conditions: 100 mg/kg body weight via intraperitoneal injections; cited from earlier work
[4] = brain/serum, read-out: Tissue/serum ratio of PZ-DHA (Mean ± SD) Brain/serum
[5] = kidneys/serum, read-out: Tissue/serum ratio of PZ-DHA (Mean ± SD) Kidneys/serum
[6] = liver/serum, read-out: Tissue/serum ratio of PZ-DHA (Mean ± SD) Liver/serum
[7] = lungs/serum, read-out: Tissue/serum ratio of PZ-DHA (Mean ± SD) Lungs/serum
[8] = spleen/serum, read-out: Tissue/serum ratio of PZ-DHA (Mean ± SD) Spleen/serum

CC/C=C\C/C=C\C/C=C\C/C=C\C/C=C\C/C=C\CCC(=O)OC[C@H]1O[C@@H](Oc2cc(O)cc(O)c2C(=O)CCc2ccc(O)cc2)[C@H](O)[C@@H](O)[C@@H]1O [PZ-DHA, phloridzin docosahexaenoate]
migration and invasion of mammary carcinoma cells [1]: significantly inhibits
cellular uptake (as a % of the dose) (MCF-7 cells): 21%
PZ-DHA uptake and fold-increase in intracellular PZ and DHA versus the malignant cells (MCF-10A cells): similar
cellular uptake (as a % of the dose) (MDA-MB-468 cells): 50%
Kp at 15 min [2, 4]: 0.51 ± 0.17
Kp at 30 min [2, 4]: 0.64 ± 0.11
Kp at 60 min [2, 4]: 0.95 ± 0.68
Kp at 90 min [2, 4]: 1.01 ± 0.19
Kp at 120 min [2, 4]: 1.31 ± 0.67
Kp at 240 min [2, 4]: 1.94 ± 0.75
Kp at 15 min [2, 5]: 0.66 ± 0.03
Kp at 30 min [2, 5]: 1.29 ± 0.22
Kp at 60 min [2, 5]: 0.81 ± 0.34
Kp at 90 min [2, 5]: 0.89 ± 0.26
Kp at 120 min [2, 5]: 2.71 ± 1.41
Kp at 240 min [2, 5]: 2.71 ± 1.08
Kp at 15 min [2, 6]: 0.14 ± 0.06
Kp at 30 min [2, 6]: 0.16 ± 0.08
Kp at 60 min [2, 6]: 4.68 ± 2.02
Kp at 90 min [2, 6]: 2.69 ± 2.17
Kp at 120 min [2, 6]: 1.03 ± 0.73
Kp at 240 min [2, 6]: 0.99 ± 0.23
Kp at 15 min [2, 7]: 3.33 ± 1.51
Kp at 30 min [2, 7]: 2.04 ± 1.09
Kp at 60 min [2, 7]: 1.05 ± 0.014
Kp at 90 min [2, 7]: 3.51 ± 2.44
Kp at 120 min [2, 7]: 3.82 ± 1.74
Kp at 240 min [2, 7]: 4.97 ± 1.37
Kp at 15 min [2, 8]: 3.29 ± 1.56
Kp at 30 min [2, 8]: 3.17 ± 0.72
Kp at 60 min [2, 8]: 4.18 ± 1.01
Kp at 90 min [2, 8]: 5.24 ± 1.75
Kp at 120 min [2, 8]: 10.9 ± 8.42
Kp at 240 min [2, 8]: 16.1 ± 5.98
liver or kidney toxicity [3]: does not show liver or kidney toxicity
